Test results as given in patent US20100086483A1, “METHOD OF MULTIDETECTOR COMPUTED TOMAGRAPHY” (Gilead Palo Alto, Inc., priority 2008, published 2010).

System: conscious dogs
Test: Effects of regadenoson on HR and CBF before and after metoprolol in conscious dogs
Type: in vivo, dog
Conditions: for Reg-induced tachycardia after metoprolol, % of control: metoprolol 1.5 mg/kg IV; for reduction of Reg-induced coronary vasodilation from control: metoprolol 1.5 mg/kg
Protocol: Five mongrel dogs were chronically instrumented for measurements of systemic hemodynamics and coronary blood flow (CBF). The effects of regadenoson (1, 2.5 and 5 μg/kg, IV) on HR and CBF were assessed before and after administration of the β1-adrenergic receptor blocker metoprolol (1.5 mg/kg). Values of peak CBF and the duration of the two-fold increase in CBF above baseline were used to assess Reg-induced coronary vasodilation.

COCCc1ccc(OCC(O)CNC(C)C)cc1 (stereo not drawn) [metoprolol]
Reg-induced tachycardia after metoprolol, % of control (Reg 1 μg/kg IV): 55±12 % of control
Reg-induced tachycardia after metoprolol, % of control (Reg 2.5 μg/kg IV): 54±7 % of control
Reg-induced tachycardia after metoprolol, % of control (Reg 5 μg/kg IV): 45±4 % of control
reduction of Reg-induced coronary vasodilation from control (Reg 1 μg/kg IV): 11±7%
reduction of Reg-induced coronary vasodilation from control (Reg 2.5 μg/kg IV): 10±4%
reduction of Reg-induced coronary vasodilation from control (Reg 5 μg/kg IV): 21±2%
